Measured values reported in US20250049791A1, “Synthesis of MEK7 Inhibitors and methods of Use Thereof” (Northwestern University, priority 2023, published 2025).
“Also recorded” adds a separate entry of the source.

Assays:
[1] = molecular target: T1, MAP2K7 recombinant protein (Homo sapiens, UniProt O14733); assay: LC/MS-MS determination of residue selectivity; assay type: binding
T1 construct: purchased Carna Biosciences 07-147-10; host or cells: E. coli
T1 sequence (O14733 1-419): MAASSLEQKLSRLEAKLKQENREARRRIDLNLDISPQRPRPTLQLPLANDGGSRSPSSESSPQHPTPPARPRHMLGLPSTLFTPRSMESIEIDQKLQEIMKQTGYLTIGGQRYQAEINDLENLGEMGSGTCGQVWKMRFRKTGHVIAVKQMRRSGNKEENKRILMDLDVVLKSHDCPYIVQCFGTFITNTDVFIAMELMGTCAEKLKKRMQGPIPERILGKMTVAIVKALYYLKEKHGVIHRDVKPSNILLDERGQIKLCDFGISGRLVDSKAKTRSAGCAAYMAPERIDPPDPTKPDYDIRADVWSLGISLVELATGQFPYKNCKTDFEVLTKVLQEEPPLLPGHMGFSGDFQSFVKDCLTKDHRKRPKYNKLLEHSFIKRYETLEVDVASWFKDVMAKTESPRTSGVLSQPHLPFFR
Protocol: MAP2K7 recombinant protein was diluted, purified, and incubated as described above. After incubation, protein solution was denatured with 8 M urea for 10 minutes at 65° C., reduced with 12.5 mM DTT for 15 minutes at 65° C., and alkylated with 25 mM iodoacetamide in the absence of light for 30 minutes at 37° C. Protein solution was diluted with PBS to 2 M urea and divided into two digestion reactions: one with 2 μg trypsin and 10 μg chymotrypsin for 6 hours at 37° C., the other with 5 μg GluC for 6 hours at 37° C. Digested peptides were acidified with 5% formic acid and desalted using Sep-Pak C18 1 cc Vac Cartridge (Waters). Peptides were analyzed by liquid chromatography tandem mass-spectrometry using an Orbitrap Eclipse Tribrid Mass Spectrometer (Thermo Scientific) coupled to an Vanquish Neo UHPLC System (Thermo Scientific). Peptides were injected onto EASY-Spray HPLC Column (C18, 2 μm particle size, 75 μm inner diameter, 250 mm length) and separated at a flow rate of […] using the following gradient: 5% buffer B (80% acetonitrile with 0.1% formic acid) in buffer A (water with 0.1% formic acid) from 0-15 min, 5-45% buffer B from 15-155 min, 45-100% buffer B from 155-180 min. Raw data was searched in Proteome Discoverer 2.5 (Thermo Scientific).

FLT3 = molecular target: T2, FLT3 (Homo sapiens, UniProt P36888); assay: ScanEDGE competition binding, FLT3; conditions: ScanEDGE screen
T2 construct: purchased DiscoverX (Eurofins)
T2 sequence (P36888 27-993): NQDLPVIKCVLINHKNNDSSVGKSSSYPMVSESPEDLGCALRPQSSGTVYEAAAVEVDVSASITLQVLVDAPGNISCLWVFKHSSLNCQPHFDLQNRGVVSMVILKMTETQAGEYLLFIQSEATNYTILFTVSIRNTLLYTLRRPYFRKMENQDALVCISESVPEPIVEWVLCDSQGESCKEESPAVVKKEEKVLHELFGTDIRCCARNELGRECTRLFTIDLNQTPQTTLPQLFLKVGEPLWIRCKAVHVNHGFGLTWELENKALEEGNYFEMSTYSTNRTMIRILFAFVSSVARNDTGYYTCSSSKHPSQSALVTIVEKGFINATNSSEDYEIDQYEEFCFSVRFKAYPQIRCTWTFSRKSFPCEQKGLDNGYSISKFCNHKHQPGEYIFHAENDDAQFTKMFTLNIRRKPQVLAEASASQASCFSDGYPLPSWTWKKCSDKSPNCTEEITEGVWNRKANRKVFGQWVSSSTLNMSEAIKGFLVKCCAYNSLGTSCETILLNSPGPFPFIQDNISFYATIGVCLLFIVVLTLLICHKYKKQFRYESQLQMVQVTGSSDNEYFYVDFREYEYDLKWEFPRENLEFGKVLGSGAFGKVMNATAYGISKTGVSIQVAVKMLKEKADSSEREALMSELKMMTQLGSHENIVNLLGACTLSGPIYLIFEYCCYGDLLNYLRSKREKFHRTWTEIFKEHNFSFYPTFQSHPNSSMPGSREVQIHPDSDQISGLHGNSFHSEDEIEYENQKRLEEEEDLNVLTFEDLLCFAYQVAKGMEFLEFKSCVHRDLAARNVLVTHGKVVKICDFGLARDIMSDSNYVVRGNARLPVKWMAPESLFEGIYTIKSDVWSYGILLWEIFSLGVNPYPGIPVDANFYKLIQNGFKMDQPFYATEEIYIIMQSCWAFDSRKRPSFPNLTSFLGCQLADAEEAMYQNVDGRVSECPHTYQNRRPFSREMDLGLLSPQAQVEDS
Description: The ScanEDGE assay, completed by DiscoverX (Eurofins) is a proprietary active site-directed competition binding assay. Compounds that bind the kinase active site prevent kinase binding to the immobilized ligand, reducing the amount of kinase captured on the solid support. Hits are identified by measuring the amount of kinase captured in experimental vs, control samples by a qPCR method that detects an associated DNA label. According to data provided by Eurofins, a typical hit at 5-10% of control signal in a 1 μM assay as shown above is generally associated with a KD in the range of 100-1,000 nM. Readings with greater than 35% of control signal correspond to exceeding large dissociation constants.

[2] = system: T-ALL cell lines (JURKAT, KOPT-K1, RPMI-8402, ALL-SIL); assay: Cytotoxicity assay (CellTiter-Glo), T-ALL cell lines; assay type: cell-based; conditions: 48 hours
MEK6 = molecular target: T3, MEK6 (Homo sapiens, UniProt P52564); assay: Additional selectivity assay, MEK6 (FIG. 9); assay type: binding
T3 sequence (P52564 1-334): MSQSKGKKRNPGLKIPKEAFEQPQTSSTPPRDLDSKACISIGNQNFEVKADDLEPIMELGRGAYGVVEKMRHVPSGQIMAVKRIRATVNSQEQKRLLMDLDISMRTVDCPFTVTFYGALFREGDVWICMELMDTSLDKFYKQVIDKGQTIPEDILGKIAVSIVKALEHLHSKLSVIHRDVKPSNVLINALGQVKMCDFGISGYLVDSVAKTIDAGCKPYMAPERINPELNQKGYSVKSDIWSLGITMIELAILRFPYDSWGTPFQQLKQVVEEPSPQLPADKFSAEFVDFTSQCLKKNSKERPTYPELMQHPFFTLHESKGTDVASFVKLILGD

Which “cysteine residue covalently engaged, GluC digest” value [1] does the source give for `O=C(CCl)Nc1cccc(Oc2cc(NCc3ccccc3)ncn2)c1` [Compound 25, N-(3-((6-(benzylamino)pyrimidin-4-yl)oxy)phenyl)-2-chloroacetamide] here?
The value was “Cys341”.

And the “cysteine residue covalently engaged, trypsin/chymotrypsin digest” value [1]?
Its value is “Cys218”.

And the “engagement of FLT3” value (FLT3)?
Its value is “does not engage”.

And the dose-response cytotoxicity [2]?
The dose-response cytotoxicity was “marked cytotoxicity”.

And the “activity/binding at MEK6” value (MEK6)?
The value was “inactive; also recorded: lack of binding”.
